Results published in article PMC12675575, “A BRET biosensor for measuring uncompetitive engagement of PRMT5 complexes in cells” (Nature Communications, 2025).
“And” between values parts separate entries of the source, which are not always exact repeats. Equal entries are not always repeated.

Key:
PRMT5-NL = molecular target: T1, PRMT5-NL (Homo sapiens, UniProt O14744); assay: CBH-002 affinity curve, HEK293, PRMT5-NL fusion with empty carrier DNA (no WDR77); type: cell-based; parameters: unit not given here; details: Figure S2B NL-PRMT5, log([CBH-002])
T1 construct: host or cells: HEK293
Protocol: (§1) HEK293 cells (ATCC) were cultured in DMEM (Thermo Fisher) + 10% (v/v) FBS (Seredigm), and HCT116 cells (Horizon Discovery, #PAR-034 and #R02-033) were cultured in McCoy’s 5A (Thermo Fisher) + 10% FBS, with incubation in a humidified, 37 °C/5% CO2 incubator. Cells were split 1–3 days prior to performing experiments and used at roughly 80% confluency. […] Cells were transfected according to the manufacturer’s protocol using FuGENE HD (Promega). NanoLuc fusion DNA was diluted into Transfection Carrier DNA (Promega) in Opti-MEM at a ratio of 1:9 (mass/mass), and FuGENE HD was added at a ratio of 1:3 (μg DNA:μL lipid). For experiments using WDR77, untagged WDR77 DNA (Promega) was used in place of Carrier DNA. Formed complexes were combined with cells resuspended to a density of 2 × 10^5 cells/mL in Opti-MEM + 1% FBS at a ratio of 1:20 (vol:vol). Cells were plated into a flask and incubated at 37 °C in a humidified 5% CO2 atmosphere for 18–24 h, before being lifted and seeded into 96-well non-binding surface-treated plates (Corning). Cells were seeded at a density of 2 × 10^5 cells/mL in Opti-MEM + 1% FBS in 100 μL (96-well). The BRET probe CBH-002 was prepared first as a 100× stock in 100% DMSO (Sigma) and then diluted to a 20× stock in NanoBRET Tracer Dilution buffer (Promega). Test compounds were prepared as 1000× stocks in 100% DMSO and diluted to 10× stocks in Opti-MEM to prepare working stocks. […] NanoBRET Complete 3x Substrate was prepared by combining Nano-Glo Substrate and Extracellular NanoLuc Inhibitor in Opti-MEM, according to the manufacturer’s protocol (Promega). NanoBRET Complete 3× Substrate was added to cells and plates were measured on either a PheraSTAR FSX equipped with 450 nm (donor) and 610 nm (acceptor) filters, or a GloMAX Discover equipped with 450/8 nm BP (donor) and 600 nm LP (acceptor) filters, using a 0.3 s integration time.
(§2) EC50 values were obtained by fitting the BRET probe and compound affinity curves to a sigmoidal four-parameter fit model in Graphpad Prism:1 Y=Ymin+Ymax−Ymin/1+10^LogEC50−Xh where h is the Hill Slope.

PRMT7 = molecular target: T2, PRMT7 (Homo sapiens, UniProt Q9NVM4); assay: CBH-002 affinity curve, HEK293, PRMT7-NL fusion; type: cell-based; parameters: BRET, CBH-002 + DMSO / BRET, CBH-002 + GSK3326595: unit not given here; details: for BRET, CBH-002 + DMSO / BRET, CBH-002 + GSK3326595: Figure S2C PRMT7-NL, log([CBH-002])
T2 construct: host or cells: HEK293
T2 sequence (Q9NVM4 1-692): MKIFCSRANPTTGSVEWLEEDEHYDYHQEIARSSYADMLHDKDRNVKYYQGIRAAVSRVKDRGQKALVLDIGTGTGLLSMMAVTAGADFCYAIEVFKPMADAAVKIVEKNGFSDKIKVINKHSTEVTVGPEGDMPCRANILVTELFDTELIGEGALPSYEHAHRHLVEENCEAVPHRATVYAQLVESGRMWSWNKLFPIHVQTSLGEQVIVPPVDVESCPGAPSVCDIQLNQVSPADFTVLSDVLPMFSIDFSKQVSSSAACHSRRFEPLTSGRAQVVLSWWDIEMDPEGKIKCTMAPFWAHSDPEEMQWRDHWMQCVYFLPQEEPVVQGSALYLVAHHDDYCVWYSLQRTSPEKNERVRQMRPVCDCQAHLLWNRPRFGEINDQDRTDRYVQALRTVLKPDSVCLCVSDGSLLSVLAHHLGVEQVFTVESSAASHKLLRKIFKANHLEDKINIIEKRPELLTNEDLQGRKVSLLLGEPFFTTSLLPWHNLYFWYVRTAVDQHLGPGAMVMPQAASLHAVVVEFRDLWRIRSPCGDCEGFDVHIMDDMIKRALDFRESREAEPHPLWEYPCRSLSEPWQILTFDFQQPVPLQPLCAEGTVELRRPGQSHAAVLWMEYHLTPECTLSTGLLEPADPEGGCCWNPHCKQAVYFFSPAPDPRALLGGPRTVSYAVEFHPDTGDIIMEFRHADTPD
Protocol: as §1, §2

T1 sequence (O14744 whole entry, the tested form may be a part): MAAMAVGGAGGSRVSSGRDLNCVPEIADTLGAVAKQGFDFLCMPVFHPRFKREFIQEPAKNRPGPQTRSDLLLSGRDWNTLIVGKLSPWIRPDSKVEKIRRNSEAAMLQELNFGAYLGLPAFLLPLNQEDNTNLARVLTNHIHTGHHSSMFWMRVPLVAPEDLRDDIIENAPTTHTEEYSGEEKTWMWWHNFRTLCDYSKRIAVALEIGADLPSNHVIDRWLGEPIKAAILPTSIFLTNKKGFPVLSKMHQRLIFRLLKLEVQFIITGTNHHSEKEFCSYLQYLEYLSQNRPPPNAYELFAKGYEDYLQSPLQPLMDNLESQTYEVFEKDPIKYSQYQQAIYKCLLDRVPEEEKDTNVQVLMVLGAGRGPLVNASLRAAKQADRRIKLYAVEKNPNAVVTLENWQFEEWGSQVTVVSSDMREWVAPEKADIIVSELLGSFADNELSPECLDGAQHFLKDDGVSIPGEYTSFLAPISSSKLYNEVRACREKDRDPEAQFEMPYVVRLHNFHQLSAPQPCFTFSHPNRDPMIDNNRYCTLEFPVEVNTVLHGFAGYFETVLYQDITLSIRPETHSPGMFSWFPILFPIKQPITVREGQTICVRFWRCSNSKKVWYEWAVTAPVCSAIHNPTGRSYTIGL

With `O=C(CCc1ccc2n1[B-](F)(F)[N+]1=C(c3ccc[nH]3)C=CC1=C2)NCCCCC(=O)N1CCC(Nc2cc(C(=O)NC[C@H](O)CN3CCc4ccccc4C3)ncn2)CC1` [CBH-002] the “BRET, CBH-002 + DMSO” value (PRMT5-NL; uM -1.03342) was 12.5404 and 13.4407 and 13.3166, the “BRET, CBH-002 + GSK3326595” value (PRMT5-NL; uM -1.03342) was 8.441 and 8.865 and 8.461 and the “BRET, CBH-002 + DMSO” value (PRMT5-NL; uM -1.51055) was 10.7353 and 11.0633 and 11.2052. The “BRET, CBH-002 + GSK3326595” value (PRMT5-NL; uM -1.51055) was 5.349 and 5.866 and 6.032, the “BRET, CBH-002 + DMSO” value (PRMT5-NL; uM -1.98767) was 8.8779 and 8.604 and 8.921 and the “BRET, CBH-002 + GSK3326595” value (PRMT5-NL; uM -1.98767) was 5.328 and 5.307 and 5.5055. For the same compound, the “BRET, CBH-002 + DMSO” value (PRMT5-NL; uM -2.46479) was 7.2471 and 8.258 and 8.573, the “BRET, CBH-002 + GSK3326595” value (PRMT5-NL; uM -2.46479) was 3.609 and 3.848 and 3.767 and the “BRET, CBH-002 + DMSO” value (PRMT5-NL; uM -2.94191) was 6.802 and 7.308 and 6.803. For the same compound, the “BRET, CBH-002 + GSK3326595” value (PRMT5-NL; uM -2.94191) was 2.864 and 2.956 and 2.6211, the “BRET, CBH-002 + DMSO” value (PRMT5-NL; uM -3.41903) was 6.051 and 5.88 and 6.095 and the “BRET, CBH-002 + GSK3326595” value (PRMT5-NL; uM -3.41903) was 2.538 and 2.522 and 2.796. For the same compound, the “BRET, CBH-002 + DMSO” value (PRMT5-NL; uM -3.89615) was 5.285 and 4.8415 and 5.242, the “BRET, CBH-002 + GSK3326595” value (PRMT5-NL; uM -3.89615) was 2.512 and 2.541 and 2.599 and the “BRET, CBH-002 + DMSO” value (PRMT7; uM 0.04576) was 3.118 and 3.169 and 3.222. The “BRET, CBH-002 + GSK3326595” value (PRMT7; uM 0.04576) was 2.264 and 3.024 and 2.623, the “BRET, CBH-002 + DMSO” value (PRMT7; uM 0.52288) was 4.4157 and 4.315 and 4.82 and the “BRET, CBH-002 + GSK3326595” value (PRMT7; uM 0.52288) was 4.289 and 4.449 and 4.432. The “BRET, CBH-002 + DMSO” value (PRMT7; uM 1) was 6.788 and 6.4376 and 8.0011, the “BRET, CBH-002 + GSK3326595” value (PRMT7; uM 1) was 6.64 and 6.225 and 5.521 and the “BRET, CBH-002 + DMSO” value (PRMT7; uM -0.43136) was 2.545 and 2.3934 and 2.684. For the same compound, the “BRET, CBH-002 + GSK3326595” value (PRMT7; uM -0.43136) was 2.418 and 2.903 and 2.394, the “BRET, CBH-002 + DMSO” value (PRMT7; uM -0.90849) was 2.174 and 2.245 and 2.2 and the “BRET, CBH-002 + GSK3326595” value (PRMT7; uM -0.90849) was 2.014 and 2.113 and 2.172. The “BRET, CBH-002 + DMSO” value (PRMT7; uM -1.20952) was 2.33 and 1.992 and 2.793, the “BRET, CBH-002 + GSK3326595” value (PRMT7; uM -1.20952) was 1.945 and 2.184 and 2.019 and the “BRET, CBH-002 + DMSO” value (PRMT7; uM -1.68664) was 2.292 and 2.046 and 2.033. The “BRET, CBH-002 + GSK3326595” value (PRMT7; uM -1.68664) was 2.038 and 1.973 and 2.006, the “BRET, CBH-002 + DMSO” value (PRMT7; uM -1.98767) was 1.964 and 2.061 and 2.054 and the “BRET, CBH-002 + GSK3326595” value (PRMT7; uM -1.98767) was 1.921 and 2.272 and 1.954. The “BRET, CBH-002 + DMSO” value (PRMT7; uM -2.46479) was 2.032 and 2.041 and 2.0419, the “BRET, CBH-002 + GSK3326595” value (PRMT7; uM -2.46479) was 2.119 and 2.05 and 2.0804 and the “BRET, CBH-002 + DMSO” value (PRMT7; uM -2.94191) was 1.985 and 2.058 and 2.072. The “BRET, CBH-002 + GSK3326595” value (PRMT7; uM -2.94191) was 1.954 and 1.961 and 1.971 and the “CBH-002 engagement at PRMT7” value (PRMT7; HEK293, PRMT7-NL) was “did not show engagement”.
